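Dose response: 5 concentrations. Exposure: 48 h. Format: 96-well plates. Endpoint: linear interpolation; highest concentration if not reached. GI50 marks 50% less growth. TGI: concentration producing complete growth inhibition.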
How the values were obtained:
Assay in all cases: growth of human tumour cells (NCI), 48 h; in the data active = GI50 below about 0.43 µM; inactive = the rest
786-0 renal = test system: 786-0 renal
A498 renal = test system: A498 renal
A549 NSCLC = test system: A549 NSCLC
ACHN renal = test system: ACHN renal
BT-549 breast = test system: BT-549 breast
CCRF-CEM leukemia = test system: CCRF-CEM leukemia
COLO 205 colon = test system: COLO 205 colon
EKVX NSCLC = test system: EKVX NSCLC
HCC-2998 colon = test system: HCC-2998 colon
HCT-116 colon = test system: HCT-116 colon
HCT-15 colon = test system: HCT-15 colon
HL-60(TB) leukemia = test system: HL-60(TB) leukemia
HOP-62 NSCLC = test system: HOP-62 NSCLC
HOP-92 NSCLC = test system: HOP-92 NSCLC
HS 578T breast = test system: HS 578T breast
HT29 colon = test system: HT29 colon
IGROV1 ovarian = test system: IGROV1 ovarian
K-562 leukemia = test system: K-562 leukemia
KM12 colon = test system: KM12 colon
LOX IMVI melanoma = test system: LOX IMVI melanoma
M14 melanoma = test system: M14 melanoma
MALME-3M melanoma = test system: MALME-3M melanoma
MCF7 breast = test system: MCF7 breast
MDA-MB-231 breast = test system: MDA-MB-231 breast
MDA-MB-435 = test system: MDA-MB-435
MOLT-4 leukemia = test system: MOLT-4 leukemia
NCI-H226 lung = test system: NCI-H226 lung
NCI-H23 lung = test system: NCI-H23 lung
NCI-H460 lung = test system: NCI-H460 lung
NCI-H522 lung = test system: NCI-H522 lung
NCI/ADR-RES ovarian = test system: NCI/ADR-RES ovarian
OVCAR-3 ovarian = test system: OVCAR-3 ovarian
OVCAR-4 ovarian = test system: OVCAR-4 ovarian
OVCAR-5 ovarian = test system: OVCAR-5 ovarian
OVCAR-8 ovarian = test system: OVCAR-8 ovarian
PC-3 prostate = test system: PC-3 prostate
RPMI-8226 leukemia = test system: RPMI-8226 leukemia
RXF 393 renal = test system: RXF 393 renal
SF-268 CNS = test system: SF-268 CNS
SF-295 CNS = test system: SF-295 CNS
SF-539 CNS = test system: SF-539 CNS
SK-MEL-2 melanoma = test system: SK-MEL-2 melanoma
SK-MEL-28 melanoma = test system: SK-MEL-28 melanoma
SK-MEL-5 melanoma = test system: SK-MEL-5 melanoma
SK-OV-3 ovarian = test system: SK-OV-3 ovarian
SN12C renal = test system: SN12C renal
SNB-19 CNS = test system: SNB-19 CNS
SNB-75 CNS = test system: SNB-75 CNS
SR leukemia = test system: SR leukemia
SW-620 colon = test system: SW-620 colon
T-47D breast = test system: T-47D breast
TK-10 renal = test system: TK-10 renal
U251 CNS = test system: U251 CNS
UACC-257 melanoma = test system: UACC-257 melanoma
UACC-62 melanoma = test system: UACC-62 melanoma
UO-31 renal = test system: UO-31 renal
CAKI-1 renal = test system: CAKI-1 renal
DU-145 prostate = test system: DU-145 prostate

CCC(C)[C@H]1C(=O)O[C@H](C(C)C)C(=O)N(C)[C@@H](C(C)C)C(=O)O[C@H](C(C)C)C(=O)N(C)[C@@H](C(C)C)C(=O)O[C@H](C(C)C)C(=O)N1C (stereo partly drawn)
9.71 µM: TGI (A498 renal)
2.92 µM: TGI (SK-MEL-5 melanoma)
6.01 µM: TGI (HOP-92 NSCLC)
4.93 µM: TGI (RPMI-8226 leukemia)
inactive: GI50 (786-0 renal) 3.09 µM | GI50 (A498 renal) 2.61 µM | GI50 (A549 NSCLC) 3 µM | GI50 (ACHN renal) 0.788 µM | GI50 (BT-549 breast) 2.5 µM | GI50 (CCRF-CEM leukemia) 3 µM | GI50 (COLO 205 colon) 1.23 µM | GI50 (EKVX NSCLC) 2.1 µM | GI50 (HCC-2998 colon) 2.67 µM | GI50 (HCT-116 colon) 2.08 µM | GI50 (HCT-15 colon) 2.7 µM | GI50 (HL-60(TB) leukemia) 2.46 µM | GI50 (HOP-62 NSCLC) 3.52 µM | GI50 (HOP-92 NSCLC) 1.21 µM | GI50 (HS 578T breast) 4.64 µM | GI50 (HT29 colon) 2.57 µM | GI50 (IGROV1 ovarian) 3.51 µM | GI50 (K-562 leukemia) 1.46 µM | GI50 (KM12 colon) 1.57 µM | GI50 (LOX IMVI melanoma) 1.94 µM | GI50 (M14 melanoma) 1.66 µM | GI50 (MALME-3M melanoma) 0.577 µM | GI50 (MCF7 breast) 1.26 µM | GI50 (MDA-MB-231 breast) 2.56 µM | GI50 (MDA-MB-435) 2.46 µM | GI50 (MOLT-4 leukemia) 3.61 µM | GI50 (NCI-H226 lung) 3.62 µM | GI50 (NCI-H23 lung) 1.68 µM | GI50 (NCI-H460 lung) 1.65 µM | GI50 (NCI-H522 lung) 1.61 µM | GI50 (NCI/ADR-RES ovarian) 2.12 µM | GI50 (OVCAR-3 ovarian) 0.704 µM | GI50 (OVCAR-4 ovarian) 2.01 µM | GI50 (OVCAR-5 ovarian) 3.21 µM | GI50 (OVCAR-8 ovarian) 2.11 µM | GI50 (PC-3 prostate) 1.56 µM | GI50 (RPMI-8226 leukemia) 0.457 µM | GI50 (RXF 393 renal) 2.73 µM | GI50 (SF-268 CNS) 3.85 µM | GI50 (SF-295 CNS) 0.717 µM | GI50 (SF-539 CNS) 3.65 µM | GI50 (SK-MEL-2 melanoma) 3.81 µM | GI50 (SK-MEL-28 melanoma) 2.72 µM | GI50 (SK-MEL-5 melanoma) 0.761 µM | GI50 (SK-OV-3 ovarian) 2.47 µM | GI50 (SN12C renal) 1.72 µM | GI50 (SNB-19 CNS) 2.07 µM | GI50 (SNB-75 CNS) 2.75 µM | GI50 (SR leukemia) 3.67 µM | GI50 (SW-620 colon) 3.1 µM | GI50 (T-47D breast) 1.08 µM | GI50 (TK-10 renal) 2.58 µM | GI50 (U251 CNS) 2.19 µM | GI50 (UACC-257 melanoma) 2.08 µM | GI50 (UACC-62 melanoma) 0.631 µM | GI50 (UO-31 renal) 1.03 µM
> 10 µM: TGI (786-0 renal) | TGI (A549 NSCLC) | TGI (ACHN renal) | TGI (BT-549 breast) | TGI (CCRF-CEM leukemia) | TGI (EKVX NSCLC) | TGI (HCC-2998 colon) | TGI (HCT-116 colon) | TGI (HCT-15 colon) | TGI (HOP-62 NSCLC) | TGI (HS 578T breast) | TGI (HT29 colon) | TGI (IGROV1 ovarian) | TGI (K-562 leukemia) | TGI (KM12 colon) | TGI (LOX IMVI melanoma) | TGI (M14 melanoma) | TGI (MALME-3M melanoma) | TGI (MCF7 breast) | TGI (MDA-MB-435) | TGI (NCI-H226 lung) | TGI (NCI-H23 lung) | TGI (NCI-H460 lung) | TGI (NCI-H522 lung) | TGI (NCI/ADR-RES ovarian) | TGI (OVCAR-3 ovarian) | TGI (OVCAR-4 ovarian) | TGI (OVCAR-5 ovarian) | TGI (OVCAR-8 ovarian) | TGI (PC-3 prostate) | TGI (RXF 393 renal) | TGI (SF-268 CNS) | TGI (SF-295 CNS) | TGI (SF-539 CNS) | TGI (SK-MEL-2 melanoma) | TGI (SK-MEL-28 melanoma) | TGI (SN12C renal) | TGI (SNB-19 CNS) | TGI (SNB-75 CNS) | TGI (SR leukemia) | TGI (SW-620 colon) | TGI (TK-10 renal) | TGI (U251 CNS) | TGI (UACC-257 melanoma) | TGI (UACC-62 melanoma) | TGI (UO-31 renal)
9.97 µM: TGI (MOLT-4 leukemia)
8.15 µM: TGI (MDA-MB-231 breast)
5.26 µM: TGI (HL-60(TB) leukemia)
7.59 µM: TGI (SK-OV-3 ovarian)
2.94 µM: TGI (COLO 205 colon)
7.81 µM: TGI (T-47D breast)

COc1ccc([C@H]2[C@H](O)C(=O)N2c2cc(OC)c(OC)c(OC)c2)cc1Cl
> 35.4 µM: TGI (RPMI-8226 leukemia)
inactive: GI50 (A498 renal) > 59.8 µM | GI50 (HOP-92 NSCLC) 0.828 µM | GI50 (OVCAR-4 ovarian) 0.442 µM | GI50 (T-47D breast) > 38.4 µM | GI50 (TK-10 renal) > 100 µM
0.0365 µM: TGI (SK-MEL-5 melanoma)
< 0.0105 µM: TGI (NCI-H522 lung)
< 0.0225 µM: TGI (COLO 205 colon)
> 62.6 µM: TGI (HCT-116 colon)
< 0.0104 µM: TGI (MDA-MB-435)
0.718 µM: TGI (BT-549 breast)
active: GI50 (786-0 renal) < 0.0155 µM | GI50 (A549 NSCLC) < 0.0141 µM | GI50 (ACHN renal) < 0.01 µM | GI50 (BT-549 breast) < 0.0125 µM | GI50 (CAKI-1 renal) < 0.01 µM | GI50 (CCRF-CEM leukemia) < 0.01 µM | GI50 (COLO 205 colon) < 0.0149 µM | GI50 (DU-145 prostate) < 0.0128 µM | GI50 (HCC-2998 colon) < 0.0188 µM | GI50 (HCT-116 colon) < 0.01 µM | GI50 (HCT-15 colon) < 0.0118 µM | GI50 (HL-60(TB) leukemia) < 0.01 µM | GI50 (HOP-62 NSCLC) < 0.0114 µM | GI50 (HS 578T breast) < 0.0158 µM | GI50 (HT29 colon) < 0.01 µM | GI50 (IGROV1 ovarian) < 0.0111 µM | GI50 (K-562 leukemia) < 0.01 µM | GI50 (KM12 colon) < 0.0113 µM | GI50 (LOX IMVI melanoma) < 0.01 µM | GI50 (M14 melanoma) < 0.0128 µM | GI50 (MALME-3M melanoma) < 0.0149 µM | GI50 (MCF7 breast) < 0.01 µM | GI50 (MDA-MB-231 breast) < 0.0161 µM | GI50 (MDA-MB-435) < 0.01 µM | GI50 (MOLT-4 leukemia) < 0.017 µM | GI50 (NCI-H226 lung) < 0.01 µM | GI50 (NCI-H23 lung) 0.0106 µM | GI50 (NCI-H460 lung) < 0.0127 µM | GI50 (NCI-H522 lung) < 0.01 µM | GI50 (NCI/ADR-RES ovarian) < 0.0136 µM | GI50 (OVCAR-3 ovarian) < 0.01 µM | GI50 (OVCAR-5 ovarian) < 0.012 µM | GI50 (OVCAR-8 ovarian) < 0.0141 µM | GI50 (PC-3 prostate) < 0.0168 µM | GI50 (RPMI-8226 leukemia) < 0.0112 µM | GI50 (RXF 393 renal) < 0.01 µM | GI50 (SF-268 CNS) < 0.0241 µM | GI50 (SF-295 CNS) < 0.01 µM | GI50 (SF-539 CNS) < 0.01 µM | GI50 (SK-MEL-2 melanoma) 0.0319 µM | GI50 (SK-MEL-28 melanoma) < 0.0434 µM | GI50 (SK-MEL-5 melanoma) < 0.01 µM | GI50 (SK-OV-3 ovarian) < 0.0187 µM | GI50 (SN12C renal) < 0.01 µM | GI50 (SNB-19 CNS) < 0.0241 µM | GI50 (SNB-75 CNS) < 0.01 µM | GI50 (SR leukemia) < 0.01 µM | GI50 (SW-620 colon) < 0.01 µM | GI50 (U251 CNS) 0.0186 µM | GI50 (UACC-62 melanoma) < 0.01 µM | GI50 (UO-31 renal) < 0.0192 µM
> 43.1 µM: TGI (CAKI-1 renal)
> 100 µM: TGI (786-0 renal) | TGI (A498 renal) | TGI (A549 NSCLC) | TGI (ACHN renal) | TGI (CCRF-CEM leukemia) | TGI (DU-145 prostate) | TGI (EKVX NSCLC) | TGI (HCT-15 colon) | TGI (HOP-62 NSCLC) | TGI (HOP-92 NSCLC) | TGI (HS 578T breast) | TGI (IGROV1 ovarian) | TGI (K-562 leukemia) | TGI (KM12 colon) | TGI (LOX IMVI melanoma) | TGI (M14 melanoma) | TGI (MALME-3M melanoma) | TGI (MCF7 breast) | TGI (MDA-MB-231 breast) | TGI (MOLT-4 leukemia) | TGI (NCI-H23 lung) | TGI (OVCAR-4 ovarian) | TGI (OVCAR-5 ovarian) | TGI (PC-3 prostate) | TGI (RXF 393 renal) | TGI (SF-268 CNS) | TGI (SF-295 CNS) | TGI (SK-MEL-2 melanoma) | TGI (SK-MEL-28 melanoma) | TGI (SK-OV-3 ovarian) | TGI (SN12C renal) | TGI (SNB-19 CNS) | TGI (SNB-75 CNS) | TGI (SW-620 colon) | TGI (T-47D breast) | TGI (TK-10 renal) | TGI (U251 CNS) | TGI (UACC-257 melanoma) | TGI (UACC-62 melanoma) | TGI (UO-31 renal)
50.5 µM: TGI (NCI-H226 lung)
> 87.2 µM: TGI (SR leukemia)

Reference: PubChem BioAssay (NCI)
